Our source for the Ki values is BindingDB's records for doi:10.1002/cbic.200800782 (Philipps-UniversitÄT Marburg, 2009).

This experiment addresses Queuine tRNA-ribosyltransferase (Zymomonas mobilis subsp. mobilis (strain ATCC 31821 / ZM4 / CP4), UniProt P28720). The experiment in a line: Enzyme Assay. The note with it: pH 7.3. The text has this:
Inhibition assay using tRNA-guanine transglycosylase (TGT).

Each structure is given as a SMILES string.

Sequence of Queuine tRNA-ribosyltransferase (P28720 whole entry): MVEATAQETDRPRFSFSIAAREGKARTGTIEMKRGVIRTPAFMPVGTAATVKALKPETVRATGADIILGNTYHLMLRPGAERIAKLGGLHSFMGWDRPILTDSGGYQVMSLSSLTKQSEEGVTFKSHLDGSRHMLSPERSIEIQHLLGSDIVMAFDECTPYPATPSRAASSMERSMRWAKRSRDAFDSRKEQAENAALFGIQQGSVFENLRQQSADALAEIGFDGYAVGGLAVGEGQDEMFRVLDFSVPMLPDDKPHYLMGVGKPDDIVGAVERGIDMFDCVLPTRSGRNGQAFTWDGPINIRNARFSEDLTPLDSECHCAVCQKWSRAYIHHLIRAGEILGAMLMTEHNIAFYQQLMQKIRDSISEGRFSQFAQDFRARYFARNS

`CN(C)c1ccc2c(=O)[nH]c(N)nc2c1` [Quinazolinone scaffold, 1] came in with a Ki of 31 µM. `CN(Cc1ccccc1)c1ccc2c(=O)[nH]c(N)nc2c1` [Quinazolinone scaffold, 2] yielded an inhibitory constant (Ki) of 7.6 µM. The figure for `Nc1nc2cc3nc[nH]c3cc2c(=O)[nH]1` [lin-benzoguanine scaffold, 3] is 4.1 µM; for `Cc1nc2cc3nc(N)[nH]c(=O)c3cc2[nH]1` [lin-benzoguanine scaffold, 4] it is 1.5 µM; for `Nc1nc2cc3nc(N)[nH]c3cc2c(=O)[nH]1` [lin-benzoguanine scaffold, 5] it is 0.077 µM. Take `CNc1nc2cc3c(=O)[nH]c(N)nc3cc2[nH]1` [lin-benzoguanine scaffold, 6]: the Ki was found to be 0.0058 µM. `Nc1nc2cc3nc(NCc4cccs4)[nH]c3cc2c(=O)[nH]1` [lin-benzoguanine scaffold, 7]: affinity was put at a Ki of 0.0035 µM.

The compound `Nc1nc2cc3nc(NCc4cccc5ccccc45)[nH]c3cc2c(=O)[nH]1` [lin-benzoguanine scaffold, 8] came in with a Ki of 0.0055 µM. Turning to `Nc1nc2cc3[nH]c(NCCN4CCOCC4)nc3cc2c(=O)[nH]1` [lin-benzoguanine scaffold, 9], the Ki turned out to be 0.006 µM. In the case of `Nc1nc2cc3nc(NCCc4ccccc4)[nH]c3cc2c(=O)[nH]1` [lin-benzoguanine scaffold, 10], the Ki was 0.01 µM.

As usually defined, the Ki is the dissociation constant of the complex between target and ligand, obtained from inhibition or displacement.
